# Test results taken from ChEMBL document CHEMBL3045618, “Effect of seven new orchard pesticides on Galendromus occidentalis in laboratory studies” (2009).
# Legend:
# Assay type in all cases: functional
# Galendromus occidentalis [1] = test: Toxicity against Metaseiulus occidentalis adults in bean leaf disk infested with two-spotted spider mites assessed as average number of eggs laid (fecundity) at 0.3024 g AI/L treated using worst-case laboratory exposure procedure measured after 48 hr (reference value: 2.30/day)
# Galendromus occidentalis [2] = test: Toxicity against Metaseiulus occidentalis adults in bean leaf disk infested with two-spotted spider mites assessed as corrected mortality at 0.3024 g AI/L treated using worst-case laboratory exposure procedure measured after 72 hr
# Galendromus occidentalis [3] = test: Toxicity against Metaseiulus occidentalis adults in bean leaf disk infested with two-spotted spider mites assessed as repellency at 0.3024 g AI/L treated using worst-case laboratory exposure procedure measured after 48 hr (reference value: 13.6%)
# Galendromus occidentalis [4] = test: Toxicity against Metaseiulus occidentalis adults in bean leaf disk infested with two-spotted spider mites assessed as repellency at 0.3024 g AI/L treated using worst-case laboratory exposure procedure measured after 72 hr (reference value: 16.1%)
# Galendromus occidentalis [5] = test: Toxicity against Metaseiulus occidentalis adults in bean leaf disk infested with two-spotted spider mites assessed as repellency at 0.3024 g AI/L treated using worst-case laboratory exposure procedure measured after 24 hr (reference value: 3.6%)
# Galendromus occidentalis [6] = test: Toxicity against Metaseiulus occidentalis adults in bean leaf disk infested with two-spotted spider mites assessed as average number of eggs laid (fecundity) at 0.3024 g AI/L treated using worst-case laboratory exposure procedure measured after 72 hr (reference value: 2.23/day)
# Galendromus occidentalis [7] = test: Toxicity against Metaseiulus occidentalis adults in bean leaf disk infested with two-spotted spider mites assessed as average number of eggs laid (fecundity) at 0.3024 g AI/L treated using worst-case laboratory exposure procedure measured after 24 hr (reference value: 2.11/day)
# Galendromus occidentalis [8] = test: Ovicidal activity against Metaseiulus occidentalis eggs in bean leaf disk infested with two-spotted spider mites assessed as corrected cumulative mortality at 240 g/L SC formulation treated using worst-case laboratory exposure procedure measured after 144 hr (reference value: 0.7%)
# Galendromus occidentalis [9] = test: Toxicity against Metaseiulus occidentalis adults in bean leaf disk infested with two-spotted spider mites assessed as corrected mortality at 0.1600 g AI/L treated using worst-case laboratory exposure procedure measured after 72 hr
# Galendromus occidentalis [10] = test: Toxicity against Metaseiulus occidentalis adults in bean leaf disk infested with two-spotted spider mites assessed as corrected mortality at 4x0.1600 g AI/L treated using worst-case laboratory exposure procedure measured after 72 hr
# Galendromus occidentalis [11] = test: Toxicity against Metaseiulus occidentalis adults in bean leaf disk infested with two-spotted spider mites assessed as repellency at 0.1333 g AI/L treated using worst-case laboratory exposure procedure measured after 48 hr (reference value: 13.6%)
# Galendromus occidentalis [12] = test: Toxicity against Metaseiulus occidentalis adults in bean leaf disk infested with two-spotted spider mites assessed as repellency at 0.1333 g AI/L treated using worst-case laboratory exposure procedure measured after 72 hr (reference value: 16.1%)
# Galendromus occidentalis [13] = test: Toxicity against Metaseiulus occidentalis adults in bean leaf disk infested with two-spotted spider mites assessed as average number of eggs laid (fecundity) at 0.1333 g AI/L treated using worst-case laboratory exposure procedure measured after 72 hr (reference value: 2.23/day)
# Galendromus occidentalis [14] = test: Toxicity against Metaseiulus occidentalis adults in bean leaf disk infested with two-spotted spider mites assessed as average number of eggs laid (fecundity) at 0.1333 g AI/L treated using worst-case laboratory exposure procedure measured after 48 hr (reference value: 2.30/day)
# Galendromus occidentalis [15] = test: Toxicity against Metaseiulus occidentalis adults in bean leaf disk infested with two-spotted spider mites assessed as average number of eggs laid (fecundity) at 0.1333 g AI/L treated using worst-case laboratory exposure procedure measured after 24 hr (reference value: 2.11/day)
# Galendromus occidentalis [16] = test: Toxicity against Metaseiulus occidentalis adults in bean leaf disk infested with two-spotted spider mites assessed as repellency at 0.1333 g AI/L treated using worst-case laboratory exposure procedure measured after 24 hr (reference value: 3.6%)
# Galendromus occidentalis [17] = test: Toxicity against Metaseiulus occidentalis adults in bean leaf disk infested with two-spotted spider mites assessed as corrected mortality at 2x0.1600 g AI/L treated using worst-case laboratory exposure procedure measured after 72 hr
# Galendromus occidentalis [18] = test: Ovicidal activity against Metaseiulus occidentalis eggs in bean leaf disk infested with two-spotted spider mites assessed as corrected cumulative mortality at 480 g/L SC formulation treated using worst-case laboratory exposure procedure measured after 144 hr (reference value: 0.7%)
# Galendromus occidentalis [19] = test: Toxicity against Metaseiulus occidentalis adults in bean leaf disk infested with two-spotted spider mites assessed as average number of eggs laid (fecundity) at 0.1600 g AI/L treated using worst-case laboratory exposure procedure measured after 48 hr (reference value: 2.30/day)
# Galendromus occidentalis [20] = test: Toxicity against Metaseiulus occidentalis adults in bean leaf disk infested with two-spotted spider mites assessed as repellency at 0.1600 g AI/L treated using worst-case laboratory exposure procedure measured after 24 hr (reference value: 3.6%)
# Galendromus occidentalis [21] = test: Toxicity against Metaseiulus occidentalis adults in bean leaf disk infested with two-spotted spider mites assessed as repellency at 0.1600 g AI/L treated using worst-case laboratory exposure procedure measured after 48 hr (reference value: 13.6%)
# Galendromus occidentalis [22] = test: Toxicity against Metaseiulus occidentalis adults in bean leaf disk infested with two-spotted spider mites assessed as repellency at 0.1600 g AI/L treated using worst-case laboratory exposure procedure measured after 72 hr (reference value: 16.1%)
# Galendromus occidentalis [23] = test: Ovicidal activity against Metaseiulus occidentalis eggs in bean leaf disk infested with two-spotted spider mites assessed as corrected cumulative mortality at 250 g/kg WG formulation treated using worst-case laboratory exposure procedure measured after 144 hr (reference value: 0.7%)
# Galendromus occidentalis [24] = test: Toxicity against Metaseiulus occidentalis adults in bean leaf disk infested with two-spotted spider mites assessed as average number of eggs laid (fecundity) at 0.1600 g AI/L treated using worst-case laboratory exposure procedure measured after 24 hr (reference value: 2.11/day)
# Galendromus occidentalis [25] = test: Toxicity against Metaseiulus occidentalis adults in bean leaf disk infested with two-spotted spider mites assessed as average number of eggs laid (fecundity) at 0.1600 g AI/L treated using worst-case laboratory exposure procedure measured after 72 hr (reference value: 2.23/day)
smiles,measurement,setting,value
CCC(C)(C)C(=O)OC1=C(c2ccc(Cl)cc2Cl)C(=O)OC12CCCCC2 [SPIRODICLOFEN],Activity,Galendromus occidentalis [1],1.83 day⁻¹
same,mortality,Galendromus occidentalis [2],2.1%
same,Repellency,Galendromus occidentalis [3],13.5%
same,Repellency,Galendromus occidentalis [4],15.4%
same,Repellency,Galendromus occidentalis [5],6.4%
same,Activity,Galendromus occidentalis [6],1.43 day⁻¹
same,Activity,Galendromus occidentalis [7],1.93 day⁻¹
same,mortality at 240000 µg/mL (stock),Galendromus occidentalis [8],2.3%
N#C/N=C1\SCCN1Cc1ccc(Cl)nc1 [THIACLOPRID],mortality,Galendromus occidentalis [9],2.8%
same,mortality,Galendromus occidentalis [10],5.8%
same,Repellency,Galendromus occidentalis [11],44.9%
same,Repellency,Galendromus occidentalis [12],49.4%
same,Activity,Galendromus occidentalis [13],1.58 day⁻¹
same,Activity,Galendromus occidentalis [14],1.26 day⁻¹
same,Activity,Galendromus occidentalis [15],1.64 day⁻¹
same,Repellency,Galendromus occidentalis [16],12.2%
same,mortality,Galendromus occidentalis [17],2.3%
same,mortality at 480000 µg/mL (stock),Galendromus occidentalis [18],1.9%
CN1COCN(Cc2cnc(Cl)s2)/C1=N\[N+](=O)[O-] [THIAMETHOXAM],mortality,Galendromus occidentalis [9],8%
same,mortality,Galendromus occidentalis [10],8.5%
same,Activity,Galendromus occidentalis [19],0.33 day⁻¹
same,Repellency,Galendromus occidentalis [20],5.1%
same,Repellency,Galendromus occidentalis [21],34%
same,Repellency,Galendromus occidentalis [22],41%
same,mortality,Galendromus occidentalis [23],4.3%
same,mortality,Galendromus occidentalis [17],6.2%
same,Activity,Galendromus occidentalis [24],1.44 day⁻¹
same,Activity,Galendromus occidentalis [25],0.58 day⁻¹
